Experimental data as given in patent US6087361A, “Aryl-imidazolines and aryl-imidazoles useful as α-2 adrenergic agonists without cardiovascular side effects” (Allergan Sales, Inc., priority 1997, dated 2000).

Biological target: I1 imidazoline receptor
Experiment: I1 imidazoline receptor binding assay, 3H-clonidine, bovine VLM membranes
Details: 25° C., 50 min
Description: Fresh bovine brain stems were obtained from a local slaughter house. After removal of pia-arachnoid, the medulla was isolated by dissecting the brain stem about 1 cm posterior and 1 cm caudal to the obex. The ventral quadrants of the medulla excluding the pyramids were used as the VLM. For each preparation, 30 to 40 VLM were used. Initial homogenization was performed in 20 volumes of 5 mM HEPES buffer (pH 7.4 at 4° C.) containing 250 mM sucrose, 50 uM Calpain I inhibitor (Boehginer Mannheim, Indianapolis, Ind.), 100 uM 1,10-phenanthroline (Sigma, St. Louis, Mo.) and 50 uM Pefabloc (Boehginer Mannheim, Indianapolis, Ind.), using Virtis homogenizer at setting 7 with three 10 second pulses, followed by three passes in a teflon-glass tissue homogenizer. The inhibitors were added to prevent degradation by proteases and peptidases. The homogenates were then centrifuged at 1000× g for 10 min and the resulting pellets were re-homogenized and centrifuged. Supernatants resulted from both runs were combined and centrifuged for 20 min at 48000× g. The pellets obtained were resuspended in a teflon-glass homogenizer in 50 mM Tris-HCl with 5 mM EDTA (pH 7.7 at 4° C.), centrifuged, and resuspended in 50 mM Tris-HCl with 25 mM NaCl, pH 7.7 at room temp. To remove endogenous ligands, the homogenate was incubated 30 min at room temp before it was centrifuged for 20 min at 48000× g. The pellets were then washed with 50 mM Tris-HCl buffer, (pH 7.4 at 4° C.) and loaded on top of 5 mM HEPES/0.85 M sucrose (pH 7.4 at 4° C.). Pellets obtained after centrifugation at 48000× g for 20 min were saved. The fatty connective tissue on the top layer was discarded. The partially purified VLM membrane pellets were then washed twice with 50 mM Tris-HCl, pH 7.7 at 4° C., flash frozen in dry ice/acetone slush, and stored at -100° C. until use. Receptor binding experiments were performed within days after the membrane preparation.
I1 imidazoline receptor binding affinity was determined from radioligand binding of ^3 H-clonidine (NEN, Boston, Mass.) to bovine VLM membranes. Specific activity of ^3 H-clonidine was 43 Ci/mmol. Kd of ^3 H-clonidine binding to the I1 imidazoline receptor was determined by saturation experiments and Ki of other ligands studied were determined by competition experiments. The radioligand binding assay was performed in Teflon 96-wells with the Biomek-1000 robotics (Beckman Instruments, Fullerton, Calif.). Each well contained […] ^3 H-Clonidine and 0.3 to 0.5 mg of bovine VLM protein in 5 mM HEPES buffer containing 0.5 mM EGTA and 0.5 mM MgCl2, pH 7.4 (0.1 mM ascorbic acid was added just before the protein). After 50 min of incubation at 25° C., the reaction was terminated by rapid filtration over Whatman GF/B filters treated with 0.1% polyethyleneimine and washed with 12 ml ice cold 50 mM Tris-HCl, pH 7.4 at 4° C. in a Brandel Harvester (Brandel, Gaithersburg, Md.). Both `hot` and `cold` saturation experiments were performed. In `hot` saturation experiments, studies were performed with ^3 H-clonidine ranging from 0.1 to 50 nM. In `cold` saturation experiments, studies were performed with 2 nM ^3 H-clonidine with 20 different concentrations of the unlabeled clonidine, ranging from 0.1 nM to 1 uM unlabeled clonidine. Non specific binding was defined by parallel incubations containing 10^-5 M phentolamine or naphazoline. Imidazoline binding was determined by parallel incubations in which the alpha-adrenergic sites were masked with 10^-5 M norepinephrine. During competition experiments, ligands of 20 concentrations ranged from 10^-11 to 10^-4 were used. Radioactivity was counted in a Beckman LS-3801 scintillation counter. Data were captured and analyzed with Accufit saturation and competition softwares modeled both for one-site and two-site fits (Beckman Instruments, Fullerton, Calif.) using an IBM compatible computer. All experiments were repeated at least twice.

Row | SMILES | Ki [nM]
1 | Cc1ccccc1NC1=NCCN1 [Example 1] | 12
2 | Cc1c(NC2=NCCN2)ccc2c1NCCN2 [Example 8] | 100000
3 | Cc1c(NC2=NCCN2)ccc2c1NCCO2 [Example 16] | 7110
4 | Cc1c(NC2=NCCN2)ccc2c1NC(=O)CO2 [Example 15] | 100000
5 | COc1c(C(C)(C)C)cc(C)c(Nc2ncc[nH]2)c1C [Example 22] | 4320
6 | COc1ccc(NC2=NCCN2)c(C)c1OC [Example 12] | 340
7 | Nc1cc(Cl)c(NC2=NCCN2)c(Cl)c1 [Example 3] | 19
8 | Brc1c(NC2=NCCN2)ccc2c1NCCN2 [Example 9] | 4580
9 | Cc1c(NC2=NCCN2)ccc2c1OCCO2 [Example 13] | 831
10 | c1cc2c(cc1NC1=NCCN1)NCCN2 [Example 7] | 1990
11 | c1cc2c(cc1NC1=NCCN1)OCCO2 [Example 11] | 1840
12 | O=C1COc2ccc(NC3=NCCN3)cc2N1 [Example 14] | 11600
13 | Cc1cccc(Nc2ncc[nH]2)c1C [Example 18] | 19
14 | Cc1c(O)cccc1Nc1ncc[nH]1 [Example 20] | 412
15 | CC1CNc2c(ccc(NC3=NCCN3)c2Br)N1 (stereo not drawn) [Example 10] | 3950
